Reference: patent publication US11160839B2, “Pediococcus pentosaceus CCFM1012 and application thereof to preparation of Campylobacter jejuni infection antagonism medicine” (Jiangnan University, priority 2018, dated 2021)

Tested on: C. jejuni NCTC11168
Test: Oxford cup inhibition zone test of lactic acid bacteria fermented supernate on Columbia blood agar
Format: cell-based
Conditions: Campylobacter jejuni, positive control 0.30 mg/mL, 48 h at 37° C., read-out: Diameter of inhibition zone

## CCn1cc(C(=O)O)c(=O)c2cc(F)c(N3CCNCC3)cc21 [norfloxacin]
  zone of inhibition at 300 µg/mL: 19.7 ± 0.83 mm
